Laboratory results taken from patent US20100331297A1, “MODULATION OF PROTEIN TRAFFICKING” (FOLDRX PHARMACEUTICALS, INC., priority 2007, published 2010).

Assays:
Assay type in all cases: cell-based
ypt1^ts cells = experiment: Rescue of growth of ypt1^ts mutant yeast (OD600); details: Saccharomyces cerevisiae, read-out: Ypt1-ts MRC (Minimum Rescue Concentration), ypt1^ts cells, 35° C. and 37° C., OD600; multiple results separated by a comma
Description: The activity of the compounds as modulators of protein trafficking may be measured in the assays described herein that evaluate the ability of a compound to rescue an impairment in protein trafficking. For example, the yeast mutant cell line ypt1^ts can be used to identify compounds that rescue cells from the lethal phenotype of a mutant YPT1 allele (see, e.g., Examples and Schmitt et al. (1988) Cell 53:635-47). The activity may be measured, for example, in a whole yeast cell assay using 384-well screening protocol and an optical density measurement.
The yeast mutant cell line ypt1^ts suppresses, in a temperature dependent fashion, the dominant-lethal phenotype of a mutant YPT1 allele (Schmitt et al. (1988) Cell 53:635-47). The yeast mutant cell line ypt1^ts contains an allele of YPT1 that has two point mutations: one that changes an asparagine at position 121 to a isoleucine (N121I) and another that changes an alanine at position 161 to a valine (A161V). The N121I mutation causes dominant lethality by itself, but lethality is suppressed by the second mutation, resulting in a recessive loss of function phenotype at the restrictive temperatures. ypt1^ts cells grow normally at temperatures up to 25° C., but are growth arrested at 37° C. (Id.).
Compounds were screened to assess their ability to restore growth of ypt1^ts cells. The effect of the compounds was measured on ypt1^ts cells cultured at room temperature (permissive temperature), 37° C. (non-permissive temperature), and 35° C. (semi-permissive temperature).
To determine if the test compounds could rescue the ypt1^ts mutant phenotype, ypt1^ts cells were grown overnight in synthetic complete (SC) media supplemented with 2% glucose at room temperature. Log phase cells were diluted into SC 2% glucose media to an OD600 of 0.003. 100 μL of this culture was then aliquoted into each well of 96-well flat bottom microtiter plates. 1 μL of the test compounds dissolved in DMSO (at a concentration range from 5 mM-0.005 mM) or of DMSO alone was added to each well (50 μM-0.05 μM final concentration in 1% DMSO). Plates were mixed by vortexing and incubated at 35° C. and 37° C. Compound rescue of the ypt1^ts temperature sensitive defect was assessed by measuring the OD600 (optical density at 600 nm; cell growth) of the cultures. Plates incubated at 35° C. were measured at 24 and 40 hours incubation time while plates grown at 37° C. were measured after 40 hours of incubation.
Assays monitoring the rescue of ypt1^ts mutants were performed using a vehicle, a positive control (calcium), and the compounds identified in Table II. Results in Table II corresponding to an MRC (Minimum Rescue Concentration) for ypt1^ts of greater than or equal to 50 micromolar are labeled +; of an MRC for ypt1^ts of 10-50 micromolar are labeled ++; and of an MRC for ypt1^ts of less than 10 micromolar are labeled +++. Multiple results for a particular compound are separated by a comma.

ΔF508 CFTR [1] = target: T1, ΔF508 CFTR (Homo sapiens, UniProt P13569, DEL508-508); experiment: Stabilization of ΔF508 CFTR in CFBE cells (western blot, densitometry); details: 16 hours at 37° C., 1.25-10 μM (compound 25), 1-10 μM (compound 5)
Description: In addition, efficacy of a compound can be evaluated before (first in time), concomitantly or subsequently to the above-mentioned test modalities by monitoring, e.g., (i) modulation (e.g., an improvement) of the stability of a trafficking defective protein, (ii) modulation (e.g., an improvement) of proper, physiological trafficking of the trafficking defective protein, or (iii) modulation (e.g., a restoration) in one or more functions of a trafficking defective protein. For example, in some cases, proteins (e.g., protein mutants such as ΔF508 CFTR) are prematurely degraded. Thus, the efficacy of a given compound to modulate protein trafficking can be determined by monitoring the stability of a protein in the presence as compared to the absence of the compound. For example, cells expressing a trafficking defective protein (e.g., expressing endogenously or expressing an exogenous transgene encoding a trafficking defective protein such as ΔF508 CFTR) can be cultured in the presence or absence of a compound for at least 1 hour (e.g., at least 2 hours, at least 4 hours, at least 6 hours, at least 8 hours, at least 12 hours, at least 16 hours, at least 24 hours, at least 36 hours, or at least 48 hours). Cell lysates can be prepared from the different populations of cells, suspended in Laemmli buffer (with or without reducing agent) and subjected to sodium dodecyl sulfate-polyacrylamide gel electrophoresis (SDS-PAGE). Using antibodies that specifically recognize the trafficking defective protein (e.g., CFTR), the amount of the protein in the presence as compared to in the absence of a compound can be determined by western or dot-blotting techniques. […] Where a modified state (e.g., glycosylation or phosphorylation) of a protein is indicative of increased stability, a change in the modified state of a protein can also be used to determine if a compound stabilizes the trafficking defective protein. For example, the amount of glycosylated CFTR (e.g., ΔF508 CFTR) can be assessed in the presence as compared to the absence of a compound.
The compounds can be tested for their ability to stabilize ΔF508 CTFR. CFBE cells, a cell line generated by transformation of cystic fibrosis tracheo-bronchial cells (ΔF508 CTFR homozygous) with SV40 (Bruscia et al. (2002) Gene Ther. 9(11):683-685), can be cultured with 10 μM of the selected compounds, or 10 μM VRT-325 for 16 hours at 37° C. (VRT-325 is described in, e.g., Van Goor et al. (2006) Am. J. Physiol. Lung Cell Mol. Physiol. 290:L1117-L1130). A population of cells can also be cultured with the dimethyl sulfoxide (DMSO) solvent as a control.
Following incubation, cells were lysed, solubilized in Laemmli buffer, and subjected to SDS-PAGE. CFTR protein were visualized by western blotting using an antibody specific for CFTR. Culturing CFBE cells with compound 25 (see Table I for structure) increased the amount of cellular ΔF508 CFTR protein.
The effect of different concentrations of compound 25 on ΔF508 CFTR was tested in a dose response experiment. […] The relative amounts of glysosylated and unglycosylated ΔF508 CFTR protein were visualized by western blotting (FIG. 10A), and the band intensities wer quantitated by scanning and densitometry (FIG. 10B). […] The relative amounts of glysosylated and unglycosylated ΔF508 CFTR protein were visualized by western blotting (FIG. 11A), and the band intensities wer quantitated by scanning and densitometry (FIG. 11B).

ΔF508 CFTR [2] = target: T1, ΔF508 CFTR; experiment: Corrector activity, YFP halide (iodide) quenching assay in FRT cells expressing ΔF508 CFTR; set-up: expressed in transfected cells; host or cells: Fischer rat thyroid (FRT) cells; details: FRT cells ΔF508 CFTR/YFP, 24 hours with compound at 37° C., forskolin and genistein; read-out: Corrector EC50
In short: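 FRT cells co-expressing ΔF508 CFTR and halide-sensitive YFP were incubated 24 h at 37° C with compounds, then stimulated 30 min at 37° C in PBS with forskolin and genistein. Endpoint fluorescence after iodide injection was normalized to initial reading; EC50 from 4-parameter fit with bottom constrained to DMSO control.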

TS217 cells = experiment: Rescue of cell viability from α-synuclein-induced cytotoxicity (cellular ATP, […]); details: tetracycline 5 days, 3 μM concentration, P<0.02
Method: Treatment of TS217 cells with 0.1 μg/mL tetracycline for three to six days induces expression of α-synuclein, which can be cytotoxic. […] After the five day treatment, cells were lysed and assayed for intracellular ATP concentration as a function of cell viability. The relative viability of the cells was assessed by measuring the cellular ATP level in cell lysates using a […]® Plus Bioassay kit (Cambrex, Rockland, Me.). Relative cell viability was calculated as the ratio of induced cells to control cells (cells not treated with tetracycline), as an indication of α-synuclein-induced cytotoxicity. […] By contrast, cells treated with compound 90 at 3 μM concentration reduced the α-synuclein-induced cytotoxicity by 45% (P<0.02) as compared to the control wells lacking the compound. Thus, compound 90 rescues cell viability from α-synuclein-induced cytotoxicity.

ΔF508 CFTR [3] = target: T1, ΔF508 CFTR; experiment: Potentiator activity, YFP halide (iodide) quenching assay in FRT cells expressing ΔF508 CFTR, 27° C. pre-incubation; set-up: expressed in transfected cells; host or cells: Fischer rat thyroid (FRT) cells; details: FRT cells ΔF508 CFTR/YFP, 24 hours at 27° C., compound with forskolin 30 min
In short: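 FRT cells stably co-expressing ΔF508 CFTR and halide-sensitive YFP, grown 24 h at 37° C. then 24 h at 27° C. to raise surface CFTR. Compounds in PBS with forskolin, 30 min at 37° C.; iodide injected and YFP quenching (ex 485/em 530 nm) followed. EC50 from normalized endpoint fluorescence.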

T1 sequence (P13569 with tags, fused parts or gaps DEL508-508): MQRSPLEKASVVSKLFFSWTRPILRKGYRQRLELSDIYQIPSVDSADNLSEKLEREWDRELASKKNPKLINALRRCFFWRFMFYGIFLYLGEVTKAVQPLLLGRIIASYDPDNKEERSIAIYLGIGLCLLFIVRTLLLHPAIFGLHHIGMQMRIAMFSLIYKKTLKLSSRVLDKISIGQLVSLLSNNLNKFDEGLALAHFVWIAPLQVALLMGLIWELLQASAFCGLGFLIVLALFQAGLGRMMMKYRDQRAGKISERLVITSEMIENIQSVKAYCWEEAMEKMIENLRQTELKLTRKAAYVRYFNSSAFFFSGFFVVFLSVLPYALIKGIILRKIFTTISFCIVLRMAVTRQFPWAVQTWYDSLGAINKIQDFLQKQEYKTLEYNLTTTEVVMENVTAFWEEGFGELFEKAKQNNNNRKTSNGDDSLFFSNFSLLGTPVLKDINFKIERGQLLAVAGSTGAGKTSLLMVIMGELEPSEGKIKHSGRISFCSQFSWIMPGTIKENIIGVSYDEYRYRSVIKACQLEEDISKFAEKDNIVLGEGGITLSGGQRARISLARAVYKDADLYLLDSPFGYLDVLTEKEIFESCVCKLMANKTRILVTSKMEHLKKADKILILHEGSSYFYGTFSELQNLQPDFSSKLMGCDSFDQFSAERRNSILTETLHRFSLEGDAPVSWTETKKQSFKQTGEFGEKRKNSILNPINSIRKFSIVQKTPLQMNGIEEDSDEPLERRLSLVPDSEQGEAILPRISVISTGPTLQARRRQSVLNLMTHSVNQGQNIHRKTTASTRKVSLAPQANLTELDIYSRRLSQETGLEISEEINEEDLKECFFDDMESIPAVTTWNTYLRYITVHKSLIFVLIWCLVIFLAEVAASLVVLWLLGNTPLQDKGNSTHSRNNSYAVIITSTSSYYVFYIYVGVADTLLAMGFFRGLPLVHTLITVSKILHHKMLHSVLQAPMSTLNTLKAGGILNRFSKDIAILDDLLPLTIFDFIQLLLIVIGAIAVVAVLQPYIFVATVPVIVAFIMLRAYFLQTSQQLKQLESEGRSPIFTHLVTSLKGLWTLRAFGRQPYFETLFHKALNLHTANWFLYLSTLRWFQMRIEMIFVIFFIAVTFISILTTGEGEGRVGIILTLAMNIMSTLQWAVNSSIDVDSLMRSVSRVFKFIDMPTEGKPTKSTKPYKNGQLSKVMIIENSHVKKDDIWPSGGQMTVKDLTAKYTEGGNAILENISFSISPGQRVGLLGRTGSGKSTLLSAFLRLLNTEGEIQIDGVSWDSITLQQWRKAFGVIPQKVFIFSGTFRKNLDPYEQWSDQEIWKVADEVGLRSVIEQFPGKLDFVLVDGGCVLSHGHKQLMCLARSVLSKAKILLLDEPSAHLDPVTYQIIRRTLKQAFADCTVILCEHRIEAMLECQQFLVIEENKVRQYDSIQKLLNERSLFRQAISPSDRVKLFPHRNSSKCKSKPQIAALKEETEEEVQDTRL

SMILES | minimal effective concentration (ypt1^ts cells) [µM] | glycosylated (Band B) ΔF508 CFTR protein vs absence of compound, dose response (ΔF508 CFTR [1]) | EC50 (ΔF508 CFTR [2]) [µM] | reduction of α-synuclein-induced cytotoxicity compared to control wells (TS217 cells) [%] | EC50 (ΔF508 CFTR [3]) [µM]
CC(C)(C)n1nc(Cc2cccc3ccccc23)c2c(N)ncnc21 [compound 5] | < 10 | increased | > 15 |  | 
CC(C)(C)n1nc(Oc2ccccc2)c2c(N)ncnc21 [compound 90, 1-tert-Butyl-3-phenoxy-1H-pyrazolo[3,4-d]pyrimidin-4-ylamine] | > 50 |  | > 15 | 45 | < 2
